In the NIST ThermoML archive (doi:10.1016/j.fluid.2018.05.033):

Experiments:
[1] = for mass density: 101.33 kPa, Liquid, Vibrating tube method; for Normal melting temperature: Crystal, Phase equilibration
[2] = refractive index (Na D-line) (dimensionless); conditions: 101.33 kPa, Liquid, Standard Abbe refractometry
[3] = xn = mol fraction of the nth substance listed; conditions: 101.3 kPa, Liquid, Vibrating tube method
[4] = refractive index (Na D-line) (dimensionless); xn = mol fraction of the nth substance listed; conditions: 101.3 kPa, Liquid, Standard Abbe refractometry

O=S1OCCO1 [1,3,2-dioxathiolane, 2-oxide]
298.15 K
Conditions | mass density [kg/m3] | refractive index
[1] | 1432.17 | –
[2] | – | 1.4449

Conditions | Normal melting temperature [°C]
[1] | -17.01

O=S1OCCO1 [1,3,2-dioxathiolane, 2-oxide] + CCOC(=O)OC
298.15 K
Conditions | mass density, [3] [kg/m3] | refractive index, [4]
x2 = 0.0498 | 1404.65 | 1.4405
x2 = 0.0994 | 1378 | 1.4361
x2 = 0.1993 | 1326.76 | 1.4279
x2 = 0.2998 | 1278.43 | 1.42
x2 = 0.3996 | 1233.17 | 1.4127
x2 = 0.5008 | 1189.88 | 1.4056
x2 = 0.5995 | 1149.94 | 1.3991
x2 = 0.7001 | 1111.21 | 1.3927
x2 = 0.8002 | 1074.73 | 1.3867
x2 = 0.8995 | 1040.17 | 1.381
x2 = 0.9501 | 1023.08 | 1.3782

O=S1OCCO1 [1,3,2-dioxathiolane, 2-oxide] + COC(=O)OC
298.15 K
Conditions | mass density, [3] [kg/m3] | refractive index, [4]
x2 = 0.0499 | 1412.39 | 1.4407
x2 = 0.0997 | 1392.6 | 1.4365
x2 = 0.2002 | 1353.25 | 1.4283
x2 = 0.2999 | 1314.96 | 1.4202
x2 = 0.4 | 1277.01 | 1.4123
x2 = 0.4997 | 1239.88 | 1.4044
x2 = 0.6004 | 1202.89 | 1.3965
x2 = 0.6998 | 1166.91 | 1.3889
x2 = 0.8009 | 1130.5 | 1.3811
x2 = 0.9002 | 1095.66 | 1.3737
x2 = 0.9505 | 1078.06 | 1.37

O=S1OCCO1 [1,3,2-dioxathiolane, 2-oxide] + O=C1CCCO1
298.15 K
Conditions | mass density, [3] [kg/m3] | refractive index, [4]
x2 = 0.0501 | 1417.36 | 1.4443
x2 = 0.1008 | 1401.19 | 1.4437
x2 = 0.2006 | 1369.54 | 1.4425
x2 = 0.2991 | 1338.59 | 1.4414
x2 = 0.4102 | 1303.97 | 1.4402
x2 = 0.4994 | 1276.38 | 1.4392
x2 = 0.5998 | 1245.54 | 1.4382
x2 = 0.701 | 1214.73 | 1.4373
x2 = 0.7995 | 1184.91 | 1.4365
x2 = 0.9002 | 1154.7 | 1.4356
x2 = 0.9495 | 1139.97 | 1.4353

O=S1OCCO1 [1,3,2-dioxathiolane, 2-oxide] + O=C1OCCO1
318.15 K
Conditions | mass density, [3] [kg/m3] | refractive index, [4]
x2 = 0.0492 | 1403.48 | 1.4358
x2 = 0.0998 | 1399.66 | 1.435
x2 = 0.2011 | 1391.76 | 1.4333
x2 = 0.3 | 1383.61 | 1.4315
x2 = 0.4024 | 1374.81 | 1.4297
x2 = 0.5005 | 1366.04 | 1.4278
x2 = 0.5994 | 1356.86 | 1.4259
x2 = 0.6997 | 1347.14 | 1.4238
x2 = 0.8005 | 1337 | 1.4217
x2 = 0.8996 | 1326.62 | 1.4196
x2 = 0.9494 | 1321.21 | 1.4185

COC(=O)OC [dimethyl carbonate]
298.15 K
Conditions | mass density [kg/m3] | refractive index
[1] | 1060.87 | –
[2] | – | 1.3662

Conditions | Normal melting temperature [°C]
[1] | 4.37

CCOC(=O)OC [ethyl methyl carbonate]
298.15 K
Conditions | mass density [kg/m3] | refractive index
[1] | 1006.88 | –
[2] | – | 1.3754

Conditions | Normal melting temperature [°C]
[1] | -51.47

O=C1OCCO1 [ethylene carbonate]
318.15 K
Conditions | mass density [kg/m3] | refractive index
[1] | 1315.7 | –
[2] | – | 1.4172

Conditions | Normal melting temperature [°C]
[1] | 37.41

O=C1CCCO1 [γ-butyrolactone]
298.15 K
Conditions | mass density [kg/m3] | refractive index
[1] | 1124.97 | –
[2] | – | 1.4349

Conditions | Normal melting temperature [°C]
[1] | -41.87
